Measurements: patent US10617656B2, “Methods of increasing the cytotoxicity of chemotherapeutic agents with multisubstrate inhibitors of histone, protein-Lys, polyamine acetylation, and polyamine metabolism” (Vanderbilt University, priority 2010, dated 2020)

Experiments:
p300 catalytic domain = biological target: T1, p300 catalytic domain (Homo sapiens, UniProt Q09472); test: 96-well fluorescent HAT assay kit (Active Motif), H3 peptide (5-23); assay type: biochemical
T1 construct: the catalytic domain of p300(965-1810); purchased Active Motif, Carlsbad, Calif
T1 sequence (Q09472 965-1810): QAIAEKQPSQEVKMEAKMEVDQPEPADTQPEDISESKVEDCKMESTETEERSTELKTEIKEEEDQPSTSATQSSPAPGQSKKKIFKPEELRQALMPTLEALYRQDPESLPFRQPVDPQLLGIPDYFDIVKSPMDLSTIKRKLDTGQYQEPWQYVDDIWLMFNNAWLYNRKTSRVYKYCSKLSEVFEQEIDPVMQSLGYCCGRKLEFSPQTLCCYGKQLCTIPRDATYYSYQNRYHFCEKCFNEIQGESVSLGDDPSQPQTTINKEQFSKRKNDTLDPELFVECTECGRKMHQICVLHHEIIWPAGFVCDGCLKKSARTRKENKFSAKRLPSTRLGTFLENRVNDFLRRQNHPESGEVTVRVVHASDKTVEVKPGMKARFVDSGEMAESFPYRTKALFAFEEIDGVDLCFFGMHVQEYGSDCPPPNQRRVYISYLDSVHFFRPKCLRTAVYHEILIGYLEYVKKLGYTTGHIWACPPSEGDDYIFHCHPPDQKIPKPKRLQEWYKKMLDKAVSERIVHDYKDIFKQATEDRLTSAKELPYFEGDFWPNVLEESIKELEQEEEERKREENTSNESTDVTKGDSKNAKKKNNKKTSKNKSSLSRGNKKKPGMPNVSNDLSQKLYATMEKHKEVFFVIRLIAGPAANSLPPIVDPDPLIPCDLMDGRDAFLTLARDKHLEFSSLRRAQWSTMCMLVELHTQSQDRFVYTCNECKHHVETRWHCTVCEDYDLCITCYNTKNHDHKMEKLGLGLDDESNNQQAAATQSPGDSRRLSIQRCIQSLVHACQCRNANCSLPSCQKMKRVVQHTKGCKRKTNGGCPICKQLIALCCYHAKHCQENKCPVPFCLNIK
Method: (A) Structures of compound 1a (spermidine CoA), and the acetylated side chain of a lysine residue of a polypeptide chain. (B) Inhibition of p300 acetylating activity as a function of 1a concentration. The catalytic domain of recombinant p300 (1284-1660) was assayed under steady state conditions using an N-terminal acetylated histone H4 peptide substrate, Ac-H4(1-19)-NH2. Closed circles represent experimental data points; plain line represents theoretical profile based on data reduction software (Prism) using a one site inhibition model. (C) In vitro assay of p300 activity using a 96-well assay kit (ActivMotif) and an H3 peptide substrate (5-23), according to manufacturer's instructions. Bars represent average of duplicates. […]
Reactions were set up in duplicate following the protocol supplied by the kit. […] Activity is measured in fluorescence units. […]
Assays were performed using the fluorescent HAT assay kit (Active Motif, Carlsbad, Calif.), an H3 peptide as substrate (residues 5-23), the p300 catalytic domain as enzyme, and 50 μM inhibitor in duplicate, according to the manufacturer's instructions. […] The reaction product, CoASH, was detected spectrophotometrically by reaction with 5,5′-dithiobis-2-nitrobenzoic acid (DTNB). Assays were carried out at 30° C. for 30 minutes, conditions which had previously been determined in kinetic assays to sufficient to achieve steady state.

[1] = test system: thymidine dimers in DNA of H358 cells; test: Nucleotide excision repair assay (thymidine dimer slot blot) after UVC; assay type: cell-based; details: 50 μM 1a, 24 hours after 40 J/m^2 UVC (untreated: 50%)
Method: Also shown are controls for no treatment (“c” minus 1a) or treatment with 1a only (“c” plus 1a). Each lane represents 60 μg protein. […] Each lane represents 60 μg protein.
For NER, a slot blot immunoassay was used to detect the loss of thymidine dimers from the DNA of UVC treated cells as previously described. An antibody specific for cyclobutane pyrimidine dimers, the major photoproduct produced by UVC treatment, was purchased from Kamiya Biomedical Co (Seattle, Wash.; anti-thymidine dimer, clone KTM53) and used at 1:40 dilution.

| Compound | inhibition of p300 HAT activity (p300 catalytic domain; FIG. 24, p300(965-1810), H3 peptide) | decrease of thymidine dimers [1] | inhibition at 50 µM (p300 catalytic domain; 50 μM inhibitor, Active Motif 96-well assay, FIG. 9, read-out: inhibition of incorporation of acetyl groups into the H4 peptide substrate relative to untreated wells) |
| --- | --- | --- | --- |
| CC(=O)NCCSCC(=O)NCCCNCCCCNCCCN [spm-3] | HAT inhibitors |  |  |
| CC(C)(COP(=O)(O)OP(=O)(O)OC[C@H]1O[C@@H](n2cnc3c(N)ncnc32)[C@H](O)[C@@H]1OP(=O)(O)O)[C@@H](O)C(=O)NCCC(=O)NCCSCC(=O)NCCCNCCCCN [1a, spermidine[N1]-CoA] |  | 40% | 88% |
